These are literature values, as cited in patent publication US20240307311A1, “STARCH BASED PRINTABLE MATERIALS” (ROQUETTE FRERES, priority 2021, published 2024).

For `CCC(C)n1ncn(-c2ccc(N3CCN(c4ccc(OCC5COC(Cn6cncn6)(c6ccc(Cl)cc6Cl)O5)cc4)CC3)cc2)c1=O` (centres unmarked) [itraconazole], the “solubility in water (descriptive class)” value is recorded as “practically insoluble in water”.
With `Cn1c(=O)c2c(ncn2CC(O)CO)n(C)c1=O` (centres unmarked) [diprophylline], the “solubility in water (descriptive class)” value is listed as “freely soluble in water”.
